Nine compounds from ChEMBL document CHEMBL4308863, “Oxidative nucleophilic substitution selectively produces cambinol derivatives with antiproliferative activity on bladder cancer cell lines” (Bioorg Med Chem Lett, 2019) can be followed below.

Each structure is given as a SMILES string. Calls of active or inactive are those of the source. No cut-off for these calls is given here.

Assay [1] concerns RT-112. Put plainly: Antiproliferative activity against human RT112 cells expressing p53 mutant assessed as decrease in cell viability after 3 hrs by MTT assay. The note with it: RT-112, 3 h. It is filed as functional, cell-based.
Assay [2] concerns EJ. The assay can be described thus: Antiproliferative activity against human MGHU1 cells expressing wild-type p53 assessed as decrease in cell viability after 3 hrs by MTT assay. Type of assay: functional, cell-based.
The nature of assay [3]: Cytotoxicity against human C3PV cells assessed as decrease in cell viability after 3 hrs by MTT assay. Type of assay: cell-based. On the technique in general: Formazan colour is commonly taken as a measure of viable cells.
For assay [4], the system named is EJ. Put plainly: Antiproliferative activity against human MGHU1 cells expressing wild-type p53 assessed as decrease in cell viability after 24 hrs by MTT assay. It is filed as functional, cell-based.
Assay [5] can be described thus: Cytotoxicity against human C3PV cells assessed as decrease in cell viability after 24 hrs by MTT assay. Type of assay: cell-based.
The subject of assay [6] is RT-112. The assay can be described thus: Antiproliferative activity against human RT112 cells expressing p53 mutant assessed as decrease in cell viability after 24 hrs by MTT assay. Type of assay: functional, cell-based. The note with it: RT-112, 24 h.
The target of assay [7] is T1, NAD-dependent protein deacetylase sirtuin-1 (Homo sapiens) (UniProt Q96EB6).
T1 sequence (whole entry): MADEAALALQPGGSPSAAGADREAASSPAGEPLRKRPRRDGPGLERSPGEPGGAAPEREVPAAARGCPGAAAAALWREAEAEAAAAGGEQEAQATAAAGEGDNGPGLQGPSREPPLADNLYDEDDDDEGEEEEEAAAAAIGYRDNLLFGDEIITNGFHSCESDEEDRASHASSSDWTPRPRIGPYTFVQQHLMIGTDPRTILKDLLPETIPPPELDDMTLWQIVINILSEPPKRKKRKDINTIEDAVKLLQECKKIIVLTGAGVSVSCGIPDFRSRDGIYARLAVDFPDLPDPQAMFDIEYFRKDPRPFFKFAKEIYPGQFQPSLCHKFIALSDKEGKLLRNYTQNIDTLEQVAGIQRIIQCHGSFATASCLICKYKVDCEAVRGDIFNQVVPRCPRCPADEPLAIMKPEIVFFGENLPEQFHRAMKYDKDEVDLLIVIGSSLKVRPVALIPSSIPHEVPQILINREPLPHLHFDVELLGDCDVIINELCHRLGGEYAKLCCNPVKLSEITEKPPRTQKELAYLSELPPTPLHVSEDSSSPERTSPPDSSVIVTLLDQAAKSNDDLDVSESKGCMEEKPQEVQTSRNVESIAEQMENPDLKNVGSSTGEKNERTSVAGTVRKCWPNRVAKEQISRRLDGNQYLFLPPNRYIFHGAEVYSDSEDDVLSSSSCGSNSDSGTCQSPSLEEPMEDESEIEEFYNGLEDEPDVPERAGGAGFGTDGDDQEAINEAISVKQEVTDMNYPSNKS
The assay can be described thus: Inhibition of SIRT1 (unknown origin) at 10 uM using acetylated peptide p53K382 as substrate preincubated for 15 mins followed by substrate addition and measured after 40 mins by fluorescence assay.

The test system of assay [8] is RT-112. The assay can be described thus: Inhibition of colony formation in human RT112 cells expressing p53 mutant at 24.50 to 28.74 uM after 3 to 24 hrs by crystal violet staining based assay. Type of assay: functional, cell-based.
Assay [9] concerns EJ. The assay can be described thus: Effect on acetylated-p53 expression in human MGHU1 cells after 3 to 24 hrs by Western blot analysis. Type of assay: functional, cell-based.
The target of assay [10] is T1, NAD-dependent protein deacetylase sirtuin-1 (Homo sapiens). The assay can be described thus: Inhibition of SIRT1 in human MGHU1 cells assessed as induction of p53 after 3 to 24 hrs by Western blot analysis. Type of assay: cell-based. (Immunoblotting shows a protein as a band on a membrane.)
The test system of assay [11] is EJ. Put plainly: Inhibition of colony formation in human MGHU1 cells expressing wild-type p53 at […] uM after 3 to 24 hrs by crystal violet staining based assay. Type of assay: functional, cell-based.
Assay [12] addresses T1, NAD-dependent protein deacetylase sirtuin-1 (Homo sapiens). The assay can be described thus: Inhibition of SIRT1 in human MGHU1 cells assessed as stabilization of p53 by measuring increase in p53 acetylation after 3 to 24 hrs by Western blot analysis. Type of assay: cell-based.
Assay [13] deals with EJ. Put plainly: Effect on acetylated-histone H3 expression in human MGHU1 cells after 3 to 24 hrs by Western blot analysis. It is filed as functional, cell-based.

As for `O=c1[nH]c(=S)[nH]c(-c2ccccc2)c1Cc1c(O)ccc2ccccc12` [CAMBINOL], the 50% inhibitory concentration (IC50) in the assay on RT-112 [1] is 37.9 µM; in the assay with EJ [2], 95.9 µM; in assay [3], 39.9 µM; in the assay with EJ [4] it was 242 µM; in [5], greater than 300 µM; in the assay with RT-112 [6] it was 125 µM.
For `CCCCNc1nc(-c2ccccc2)c(Cc2c(O)ccc3ccccc23)c(=O)[nH]1`, the inhibition entry in assay [7], in assay [10] and in assay [12] was “inactive” in each case. Also, the inhibition result in the assay with RT-112 [8] and with EJ [11] was “Active” in each case. Moreover, the IC50 is 1.9 µM in the assay on RT-112 [1]; 24.5 µM with EJ [2]; 47.6 µM in assay [3]; 28.7 µM in the assay with EJ [4]; greater than 300 µM in assay [5]; 1.6 µM with RT-112 [6]. Besides, the outcome in the assay on EJ [9] and in the assay with EJ [13] was inactive.
For `COc1ccc(Nc2nc(-c3ccccc3)c(Cc3c(O)ccc4ccccc34)c(=O)[nH]2)cc1`, the inhibition result in [7] is “inactive”. Further, the IC50 in the assay on RT-112 [1] is 18.5 µM; with EJ [2] it was 160 µM; in [3], greater than 300 µM; with EJ [4], 63.7 µM; in [5] it was greater than 300 µM; with RT-112 [6] it was 138 µM.
`O=c1[nH]c(NCCc2ccc(O)cc2)nc(-c2ccccc2)c1Cc1c(O)ccc2ccccc12`: the inhibition result in assay [7] is “inactive”. The IC50 with RT-112 [1] is 48.9 µM; in the assay on EJ [2], 22.1 µM; in assay [3] it was 145 µM; in the assay on EJ [4], 82.1 µM; in assay [5], greater than 300 µM; in the assay on RT-112 [6], 106 µM.
In the case of `CCN(CC)c1nc(-c2ccccc2)c(Cc2c(O)ccc3ccccc23)c(=O)[nH]1`, the inhibition entry in assay [7] was “inactive”. For the same compound, the IC50 was 32.2 µM in the assay with RT-112 [1]; 15.4 µM in the assay on EJ [2]; greater than 300 µM in [3]; 79.7 µM in the assay on EJ [4]; greater than 300 µM in [5]; 155 µM in the assay on RT-112 [6].
For `O=c1[nH]c(Nc2ccc(O)cc2)nc(-c2ccccc2)c1Cc1c(O)ccc2ccccc12`, in assay [7], the inhibition entry is “inactive”. The IC50 in the assay with RT-112 [1] was greater than 300 µM; with EJ [2], 90.9 µM; in assay [3] it was greater than 300 µM; with EJ [4] it was 92.4 µM; in assay [5] it was greater than 300 µM; with RT-112 [6], 265 µM.
For `C#CCNc1nc(-c2ccccc2)c(Cc2c(O)ccc3ccccc23)c(=O)[nH]1`, the inhibition entry in assay [7] was “inactive”. Further, the IC50 with RT-112 [1] is 91.2 µM; in the assay with EJ [2], 16.8 µM; in [3], greater than 300 µM; in the assay on EJ [4] it was 148 µM; in [5], greater than 300 µM; with RT-112 [6] it was 130 µM.
For `O=c1[nH]c(NCCc2ccc(O)c(O)c2)nc(-c2ccccc2)c1Cc1c(O)ccc2ccccc12`, the inhibition entry in [7] is “inactive”. The IC50 with RT-112 [1] is 35.9 µM; in the assay with EJ [2] it was 12.6 µM; in assay [3], greater than 300 µM; with EJ [4] it was 71.7 µM; in assay [5], greater than 300 µM; in the assay with RT-112 [6] it was 79.3 µM.
Take `O=c1[nH]c(NCCO)nc(-c2ccccc2)c1Cc1c(O)ccc2ccccc12`: the inhibition entry in assay [7] is “inactive”. Also, the IC50 in the assay on RT-112 [1] was 7.2 µM; in the assay on EJ [2], 282 µM; in assay [3] it was greater than 300 µM; in the assay with EJ [4], greater than 300 µM; in assay [5] it was greater than 300 µM; in the assay with RT-112 [6], 96.6 µM.

For orientation: IC50 means the concentration at which inhibition is half-maximal.
